# Assay results taken from article PMC10018336 (Nucleic Acids Research, 2023).
# Substitutions are numbered along the chain they refer to.
# Tests used:
# Experiment in all cases: microscale thermophoresis, RED-NHS labelled protein
# Format in all cases: binding
# [1] = biological target: T1, Sso2081 (Crn1) (Saccharolobus solfataricus, UniProt Q7LYJ6, K106A)
# T1 construct: full length aa 1-178; recombinant in E. coli Rosetta (DE3); N-terminal His6 tag cut with PreScission protease; homodimer
# T1 sequence (Q7LYJ6 1-178 K106A): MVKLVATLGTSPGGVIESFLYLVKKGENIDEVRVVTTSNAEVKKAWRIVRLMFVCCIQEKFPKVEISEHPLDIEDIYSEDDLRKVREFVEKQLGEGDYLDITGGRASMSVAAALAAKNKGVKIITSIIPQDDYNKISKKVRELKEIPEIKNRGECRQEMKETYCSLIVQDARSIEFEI
# [2] = biological target: T2, Sso2081 (Crn1) (Saccharolobus solfataricus, UniProt Q7LYJ6, T10A)
# T2 construct: full length aa 1-178; recombinant in E. coli Rosetta (DE3); N-terminal His6 tag cut with PreScission protease; homodimer
# T2 sequence (Q7LYJ6 1-178 T10A): T1 sequence (Q7LYJ6 1-178 K106A) with T10A, A106K
# [3] = biological target: T3, Sso2081 (Crn1) (Saccharolobus solfataricus, UniProt Q7LYJ6, D75A)
# T3 construct: full length aa 1-178; recombinant in E. coli Rosetta (DE3); N-terminal His6 tag cut with PreScission protease; homodimer
# T3 sequence (Q7LYJ6 1-178 D75A): T1 sequence (Q7LYJ6 1-178 K106A) with D75A, A106K
# [4] = biological target: T4, Sso2081 (Crn1) (Saccharolobus solfataricus, UniProt Q7LYJ6, S11A)
# T4 construct: full length aa 1-178; recombinant in E. coli Rosetta (DE3); N-terminal His6 tag cut with PreScission protease; homodimer
# T4 sequence (Q7LYJ6 1-178 S11A): T1 sequence (Q7LYJ6 1-178 K106A) with S11A, A106K
# [5] = biological target: T5, Sso2081 (Crn1) (Saccharolobus solfataricus, UniProt Q7LYJ6, E17A)
# T5 construct: full length aa 1-178; recombinant in E. coli Rosetta (DE3); N-terminal His6 tag cut with PreScission protease; homodimer
# T5 sequence (Q7LYJ6 1-178 E17A): T1 sequence (Q7LYJ6 1-178 K106A) with E17A, A106K
compound,measurement,setting,value
Nc1ncnc2c1ncn2[C@@H]1O[C@@H]2COP(=O)(O)O[C@H]3[C@@H](O)[C@H](n4cnc5c(N)ncnc54)O[C@@H]3COP(=O)(O)O[C@H]3[C@@H](O)[C@H](n4cnc5c(N)ncnc54)O[C@@H]3COP(=O)(O)O[C@H]3[C@@H](O)[C@H](n4cnc5c(N)ncnc54)O[C@@H]3COP(=O)(O)O[C@H]2[C@H]1O [cA4],Kd,[1],22.8 ± 10.1 nM
same,Kd,[2],17.3 ± 9.2 nM
same,Kd,[3],75.5 ± 34.1 nM
same,Kd,[4],43.2 ± 25.5 nM
same,Kd,[5],17 ± 1.2 nM
